{"source": "patent US20180117249A1", "about": "“Warburg Effect Targeted Chemotherapy Apparatus” (Cure Cancer Worldwide LLC, priority 2010, published 2018)", "key": {"[1]": {"details": "cited from earlier work"}, "breast cancer": {"system": "breast cancer", "details": "diabetic women taking metformin; diabetic control 8%, non-diabetic control 16%; cited from earlier work"}, "[2]": {"system": "breast cancer cells in culture", "details": "methotrexate with insulin vs methotrexate alone; cited from earlier work"}, "[3]": {"system": "MDA-MB-231 breast cancer cells", "details": "cells incubated with insulin; cited from earlier work"}, "[4]": {"system": "human esophageal and colonic cancer cells", "details": "cited from earlier work"}, "breast cancer cells [5]": {"system": "breast cancer cells", "details": "cells incubated with insulin; cited from earlier work"}, "[6]": {"assay": "Insulin-induced hypoglycemia safety profile (Xi'an, China)", "assay_type": "in vivo, patients", "description": "Cure Cancer Worldwide in conjunction with several hospitals in China have been treating patients using a combination of insulin induced hypoglycemia in combination with standard chemotherapy treatments, generally given multiple times in a 3 week window but at 10% the standard dose. The safety of these treatments has been evaluated as well as the side effects."}, "breast cancer cells [7]": {"system": "breast cancer cells", "details": "asynchronous population; 37% in controls; cited from earlier work"}, "[8]": {"assay": "Hypoglycemic glucose clamp in SCID mouse xenograft model", "assay_type": "in vivo", "procedure": "The glucose clamp technique has been well developed in animals models for the purpose diabetes research. (Ayala, et al., 2011) We have adapted this technique for use in a SCID mouse xenograft model. FIG. 3 gives a schematic of this procedure. Briefly, mice are injected subcutaneously in the hind flank with a standard amount of cancer cells sufficient to cause a tumor to grow. After a few weeks when tumor volume measures around 300-500 mm3, mice undergo jugular vein cannulation. Mice are fasted for 5 hours prior to treatment with chemotherapy drugs. Depending on the pharmacokinetics of the drug, drugs are either given before the start of the glucose clamp or during the clamp procedure to correspond to the maximum effectiveness of the drug during the “hypoglycemia therapeutic window”. Injection pumps containing insulin, glucose and washed erythrocytes from donor mouse blood are connected to a swivel mixer which is in turn connected to the jugular catheters. For the initiation of the hypoglycemic clump, a bolus injection of insulin is given to reduce initial blood glucose levels which typically take around 30 minutes to lower blood glucose. Then a steady state of insulin and glucose is given to maintain blood glucose levels between 30-50 mg/dL for two hours. In practice, blood glucose levels range from 22-51 mg/dl with an average around 34 mg/dL (1.9 mmol/L). […]"}, "[9]": {"details": "insulin several hours before 5-FU vs 5-FU without insulin"}}}
{"compound": "O=CC[C@@H](O)[C@H](O)[C@H](O)CO", "note": "[2DG, 2-deoxyglucose]", "values": [{"measurement": "ECG effect", "setting": "[1]; Raez, et al., 2013", "value": "irregular Electrocardiograph (ECG) heart rhythms"}, {"measurement": "main failure point in the clinic", "setting": "[1]; clinical trials", "value": "induced hyperglycemia"}]}
{"compound": "CN(C)C(=N)N=C(N)N", "note": "[metformin]", "values": [{"measurement": "pathological complete response (pCR) rate", "setting": "breast cancer", "value": 24, "unit": "%"}]}
{"compound": "CN(Cc1cnc2nc(N)nc(N)c2n1)c1ccc(C(=O)N[C@@H](CCC(=O)O)C(=O)O)cc1", "note": "[methotrexate]", "values": [{"measurement": "lowering of methotrexate concentration for same percent cell killing", "setting": "[2]", "value": 10000, "unit": "fold"}]}
{"compound": "insulin", "values": [{"measurement": "increase in the uptake of elipticine", "setting": "[3]", "value": 2, "unit": "fold"}, {"measurement": "apoptotic cell populations", "setting": "[4]; [9]", "value": "higher percentage of apoptotic cell populations"}, {"measurement": "inhibition of cell growth", "setting": "[4]; [9]", "value": "greater inhibition of cell growth"}, {"measurement": "percent of S-phase cells", "setting": "[4]; treatment of insulin", "value": "increase in the percent of S-phase cells"}, {"measurement": "stimulation of uptake of methotrexate", "setting": "breast cancer cells [5]", "value": 50, "unit": "%"}, {"measurement": "Comas", "setting": "[6]; 950 insulin injections", "value": 0, "unit": "n"}, {"measurement": "Deaths", "setting": "[6]; 950 insulin injections", "value": 0, "unit": "n"}, {"measurement": "Time Interval of Hypoglycemia", "setting": "[6]; 950 insulin injections", "value": "5-25 m"}, {"measurement": "Hypoglycemia range", "setting": "[6]; insulin induced hypoglycemia with chemotherapy at 10% standard dose, initial blood glucose 3.86-7.95 mmol/l, 950 insulin injections", "value": "1.0 to 3.4", "unit": "mmol/L"}, {"measurement": "Conclusion", "setting": "[6]; insulin-induced hypoglycemia safety profile", "value": "safe"}, {"measurement": "S-phase fraction", "setting": "breast cancer cells [7]", "value": 66, "unit": "%"}, {"measurement": "time to lower blood glucose", "setting": "[8]; bolus injection of insulin at initiation of clamp", "value": "around 30 minutes"}, {"measurement": "blood glucose levels, range in practice", "setting": "[8]; steady state of insulin and glucose for two hours, target 30-50 mg/dL", "value": "22 to 51", "unit": "mg/dL"}]}
